Reference: ChEMBL document CHEMBL2040848, “Synthesis and bioactivity evaluation of rhodanine derivatives as potential anti-bacterial agents” (2012)
≈ marks a conversion by molar mass, not a printed value.

Key:
Assay type in all cases: functional
[1] = test system: Staphylococcus aureus; test: Antibacterial activity against quinolone-resistant Staphylococcus aureus CCARM 3519 after 24 hrs by two-fold serial dilution method; conditions: CCARM 3519, 24 h
[2] = test system: Staphylococcus aureus; test: Antibacterial activity against Staphylococcus aureus KCTC 209 after 24 hrs by two-fold serial dilution method; conditions: KCTC 209, 24 h
[3] = test system: Escherichia coli; test: Antibacterial activity against Escherichia coli 1356 after 24 hrs by two-fold serial dilution method; conditions: Escherichia coli, 1356, 24 h
[4] = test system: Staphylococcus aureus; test: Antibacterial activity against quinolone-resistant Staphylococcus aureus CCARM 3505 after 24 hrs by two-fold serial dilution method; conditions: CCARM 3505, 24 h
[5] = test system: Staphylococcus aureus; test: Antibacterial activity against methicillin-resistant Staphylococcus aureus CCARM 3167 after 24 hrs by two-fold serial dilution method; conditions: CCARM 3167, 24 h
[6] = test system: Staphylococcus aureus; test: Antibacterial activity against Staphylococcus aureus KCTC 4220 after 24 hrs by two-fold serial dilution method; conditions: KCTC 4220, 24 h
[7] = test system: Staphylococcus aureus; test: Antibacterial activity against methicillin-resistant Staphylococcus aureus CCARM 3506 after 24 hrs by two-fold serial dilution method; conditions: CCARM 3506, 24 h
[8] = test system: Staphylococcus aureus; test: Antibacterial activity against Staphylococcus aureus KCTC 503 after 24 hrs by two-fold serial dilution method; conditions: KCTC 503, 24 h

Structure (SMILES) | MIC [1] [µg/mL] | MIC [2] [µg/mL] | MIC [3] [µg/mL] | MIC [4] [µg/mL] | MIC [5] [µg/mL] | MIC [6] [µg/mL] | MIC [7] [µg/mL] | MIC [8] [µg/mL]
O=C(COc1ccc(/C=C2\SC(=S)N([C@@H](Cc3ccccc3)C(=O)O)C2=O)cc1)c1ccccc1Cl | 4 (≈ 7.43 µM) | 8 (≈ 14.9 µM) | > 64 | 4 (≈ 7.43 µM) | 4 (≈ 7.43 µM) | 8 (≈ 14.9 µM) | 4 (≈ 7.43 µM) | 8 (≈ 14.9 µM)
O=C(COc1ccc(/C=C2\SC(=S)N([C@@H](Cc3ccccc3)C(=O)O)C2=O)cc1)c1cccc(Cl)c1 | 4 (≈ 7.43 µM) | 4 (≈ 7.43 µM) | > 64 | 4 (≈ 7.43 µM) | 4 (≈ 7.43 µM) | 8 (≈ 14.9 µM) | 4 (≈ 7.43 µM) | 4 (≈ 7.43 µM)
O=C(COc1ccc(/C=C2\SC(=S)N([C@@H](Cc3ccccc3)C(=O)O)C2=O)cc1)c1ccc(Cl)cc1 | 4 (≈ 7.43 µM) | 4 (≈ 7.43 µM) | > 64 | 4 (≈ 7.43 µM) | 4 (≈ 7.43 µM) | 4 (≈ 7.43 µM) | 4 (≈ 7.43 µM) | 8 (≈ 14.9 µM)
O=C(COc1ccc(/C=C2\SC(=S)N([C@@H](Cc3ccccc3)C(=O)O)C2=O)cc1)c1ccc(Cl)cc1Cl | 8 (≈ 14 µM) | 8 (≈ 14 µM) | > 64 | 8 (≈ 14 µM) | 8 (≈ 14 µM) | 8 (≈ 14 µM) | 8 (≈ 14 µM) | 8 (≈ 14 µM)
O=C(COc1ccc(/C=C2\SC(=S)N([C@@H](Cc3ccccc3)C(=O)O)C2=O)cc1)c1ccccc1Br | 8 (≈ 13.7 µM) | 4 (≈ 6.87 µM) | > 64 | 4 (≈ 6.87 µM) | 4 (≈ 6.87 µM) | 8 (≈ 13.7 µM) | 8 (≈ 13.7 µM) | 8 (≈ 13.7 µM)
O=C(COc1ccc(/C=C2\SC(=S)N([C@@H](Cc3ccccc3)C(=O)O)C2=O)cc1)c1cccc(Br)c1 | 4 (≈ 6.87 µM) | 4 (≈ 6.87 µM) | > 64 | 4 (≈ 6.87 µM) | 4 (≈ 6.87 µM) | 4 (≈ 6.87 µM) | 4 (≈ 6.87 µM) | 4 (≈ 6.87 µM)
O=C(COc1ccc(/C=C2\SC(=S)N([C@@H](Cc3ccccc3)C(=O)O)C2=O)cc1)c1ccc(Br)cc1 | 8 (≈ 13.7 µM) | 8 (≈ 13.7 µM) | > 64 | 4 (≈ 6.87 µM) | 4 (≈ 6.87 µM) | 8 (≈ 13.7 µM) | 8 (≈ 13.7 µM) | 8 (≈ 13.7 µM)
O=C(COc1ccc(/C=C2\SC(=S)N([C@@H](Cc3ccccc3)C(=O)O)C2=O)cc1)c1ccccc1F | 4 (≈ 7.67 µM) | 4 (≈ 7.67 µM) | > 64 | 4 (≈ 7.67 µM) | 4 (≈ 7.67 µM) | 8 (≈ 15.3 µM) | 4 (≈ 7.67 µM) | 8 (≈ 15.3 µM)
O=C(COc1ccc(/C=C2\SC(=S)N([C@@H](Cc3ccccc3)C(=O)O)C2=O)cc1)c1ccccc1 | 4 (≈ 7.94 µM) | 4 (≈ 7.94 µM) | > 64 | 8 (≈ 15.9 µM) | 8 (≈ 15.9 µM) | 8 (≈ 15.9 µM) | 4 (≈ 7.94 µM) | 8 (≈ 15.9 µM)
Cc1ccc(C(=O)COc2ccc(/C=C3\SC(=S)N([C@@H](Cc4ccccc4)C(=O)O)C3=O)cc2)cc1 | 8 (≈ 15.5 µM) | 8 (≈ 15.5 µM) | > 64 | 4 (≈ 7.73 µM) | 4 (≈ 7.73 µM) | 8 (≈ 15.5 µM) | 8 (≈ 15.5 µM) | 8 (≈ 15.5 µM)
COc1cccc(C(=O)COc2ccc(/C=C3\SC(=S)N([C@@H](Cc4ccccc4)C(=O)O)C3=O)cc2)c1 | 8 (≈ 15 µM) | 8 (≈ 15 µM) | > 64 | 8 (≈ 15 µM) | 8 (≈ 15 µM) | 8 (≈ 15 µM) | 8 (≈ 15 µM) | 8 (≈ 15 µM)
COc1ccccc1C(=O)COc1ccc(/C=C2\SC(=S)N([C@@H](Cc3ccccc3)C(=O)O)C2=O)cc1 | 4 (≈ 7.5 µM) | 4 (≈ 7.5 µM) | > 64 | 4 (≈ 7.5 µM) | 4 (≈ 7.5 µM) | 4 (≈ 7.5 µM) | 4 (≈ 7.5 µM) | 4 (≈ 7.5 µM)
O=C(COc1ccc(/C=C2\SC(=S)N([C@@H](Cc3ccc(O)cc3)C(=O)O)C2=O)cc1)c1ccccc1Cl | 16 (≈ 28.9 µM) | 16 (≈ 28.9 µM) | > 64 | 8 (≈ 14.4 µM) | 8 (≈ 14.4 µM) | 16 (≈ 28.9 µM) | 16 (≈ 28.9 µM) | 8 (≈ 14.4 µM)
O=C(COc1ccc(/C=C2\SC(=S)N([C@@H](Cc3ccc(O)cc3)C(=O)O)C2=O)cc1)c1cccc(Cl)c1 | 8 (≈ 14.4 µM) | 8 (≈ 14.4 µM) | > 64 | 8 (≈ 14.4 µM) | 8 (≈ 14.4 µM) | 8 (≈ 14.4 µM) | 8 (≈ 14.4 µM) | 8 (≈ 14.4 µM)
O=C(COc1ccc(/C=C2\SC(=S)N([C@@H](Cc3ccc(O)cc3)C(=O)O)C2=O)cc1)c1ccc(Cl)cc1 | 16 (≈ 28.9 µM) | 8 (≈ 14.4 µM) | > 64 | 8 (≈ 14.4 µM) | 8 (≈ 14.4 µM) | 16 (≈ 28.9 µM) | 16 (≈ 28.9 µM) | 8 (≈ 14.4 µM)
O=C(COc1ccc(/C=C2\SC(=S)N([C@@H](Cc3ccc(O)cc3)C(=O)O)C2=O)cc1)c1ccc(Cl)cc1Cl | 8 (≈ 13.6 µM) | 4 (≈ 6.8 µM) | > 64 | 8 (≈ 13.6 µM) | 8 (≈ 13.6 µM) | 8 (≈ 13.6 µM) | 8 (≈ 13.6 µM) | 4 (≈ 6.8 µM)
O=C(COc1ccc(/C=C2\SC(=S)N([C@@H](Cc3ccc(O)cc3)C(=O)O)C2=O)cc1)c1ccccc1Br | 32 (≈ 53.5 µM) | 16 (≈ 26.7 µM) | > 64 | 16 (≈ 26.7 µM) | 16 (≈ 26.7 µM) | 32 (≈ 53.5 µM) | 32 (≈ 53.5 µM) | 16 (≈ 26.7 µM)
O=C(COc1ccc(/C=C2\SC(=S)N([C@@H](Cc3ccc(O)cc3)C(=O)O)C2=O)cc1)c1cccc(Br)c1 | 8 (≈ 13.4 µM) | 8 (≈ 13.4 µM) | > 64 | 8 (≈ 13.4 µM) | 8 (≈ 13.4 µM) | 8 (≈ 13.4 µM) | 8 (≈ 13.4 µM) | 8 (≈ 13.4 µM)
O=C(COc1ccc(/C=C2\SC(=S)N([C@@H](Cc3ccc(O)cc3)C(=O)O)C2=O)cc1)c1ccc(Br)cc1 | 8 (≈ 13.4 µM) | 4 (≈ 6.68 µM) | > 64 | 8 (≈ 13.4 µM) | 8 (≈ 13.4 µM) | 8 (≈ 13.4 µM) | 8 (≈ 13.4 µM) | 4 (≈ 6.68 µM)
O=C(COc1ccc(/C=C2\SC(=S)N([C@@H](Cc3ccc(O)cc3)C(=O)O)C2=O)cc1)c1ccccc1F | 16 (≈ 29.8 µM) | 8 (≈ 14.9 µM) | > 64 | 16 (≈ 29.8 µM) | 16 (≈ 29.8 µM) | 32 (≈ 59.5 µM) | 16 (≈ 29.8 µM) | 16 (≈ 29.8 µM)
O=C(COc1ccc(/C=C2\SC(=S)N([C@@H](Cc3ccc(O)cc3)C(=O)O)C2=O)cc1)c1ccc(F)cc1 | 8 (≈ 14.9 µM) | 8 (≈ 14.9 µM) | > 64 | 8 (≈ 14.9 µM) | 8 (≈ 14.9 µM) | 8 (≈ 14.9 µM) | 8 (≈ 14.9 µM) | 8 (≈ 14.9 µM)
O=C(COc1ccc(/C=C2\SC(=S)N([C@@H](Cc3ccc(O)cc3)C(=O)O)C2=O)cc1)c1ccccc1 | 32 (≈ 61.6 µM) | 32 (≈ 61.6 µM) | > 64 | 32 (≈ 61.6 µM) | 32 (≈ 61.6 µM) | 32 (≈ 61.6 µM) | 32 (≈ 61.6 µM) | 32 (≈ 61.6 µM)
Cc1ccc(C(=O)COc2ccc(/C=C3\SC(=S)N([C@@H](Cc4ccc(O)cc4)C(=O)O)C3=O)cc2)cc1 | 16 (≈ 30 µM) | 4 (≈ 7.5 µM) | > 64 | 16 (≈ 30 µM) | 16 (≈ 30 µM) | 32 (≈ 60 µM) | 16 (≈ 30 µM) | 8 (≈ 15 µM)
